Measured values from US9694011B2, “Substituted pyrazolopyrimidines as kinases inhibitors” (JIANGSU MEDOLUTION LTD, priority 2013, dated 2017).

Columns and labels:
[1] = target: BTK (Homo sapiens (Human), UniProt Q06187); test: in vitro kinase binding assay (Kd, phage-tagged kinase, qPCR)
Procedure: (§1) An in vitro assay which determines the ability of a test compound to inhibit EGFR (L858R), EGFR (L858R,T790M) and BTK kinases.
(§2) Kinase-tagged T7 phage strains were prepared in an E. coli host derived from the BL21 strain. E. coli were grown to log-phase and infected with T7 phage and incubated with shaking at 32° C. until lysis. The lysates were centrifuged and filtered to remove cell debris. The remaining kinases were produced in HEK-293 cells and subsequently tagged with DNA for qPCR detection. Streptavidin-coated magnetic beads were treated with biotinylated small molecule ligands for 30 minutes at room temperature to generate affinity resins for kinase assays. The liganded beads were blocked with excess biotin and washed with blocking buffer (SeaBlock (Pierce), 1% BSA, 0.05% Tween 20, 1 mM DTT) to remove unbound ligand and to reduce non-specific binding. Binding reactions were assembled by combining kinases, liganded affinity beads, and test compounds in 1× binding buffer (20% SeaBlock, 0.17×PBS, 0.05% Tween 20, 6 mM DTT). All reactions were performed in polystyrene 96-well plates in a final volume of 0.135 ml. The assay plates were incubated at room temperature with shaking for 1 hour and the affinity beads were washed with wash buffer (1×PBS, 0.05% Tween 20). The beads were then re-suspended in elution buffer (lx PBS, 0.05% Tween 20, 0.5 μM non-biotinylated affinity ligand) and incubated at room temperature with shaking for 30 minutes. The kinase concentration in the eluates was measured by qPCR.
(§3) An 11-point 3-fold serial dilution of each test compound was prepared in 100% DMSO at 100× final test concentration and subsequently diluted to 1× in the assay (final DMSO concentration=1%). Kds were determined using a compound top concentration=10,000 nM. If the initial Kd determined was <0.5 nM (the lowest concentration tested), the measurement was repeated with a serial dilution starting at a lower top concentration.
(§4) Binding constants (Kds) were calculated with a standard dose-response curve using the Hill equation: Response=Background+(Signal−Background)/(1+(Kd^Hill Slope/Dose^Hill Slope)). The Hill Slope was set to −1. Curves were fitted using a non-linear least square fit with the Levenberg-Marquardt algorithm.

[2] = target: EGFR (L858R) (Homo sapiens (Human), UniProt P00533, L858R); test: as above
Procedure: as §1, §2, §3, §4

[3] = target: EGFR (L858R,T790M) (Homo sapiens (Human), UniProt P00533, L858R/T790M); test: as above
Procedure: as §1, §2, §3, §4

[4] = tested on: cancer cell line NCI-H1975; test: NCI-H1975 cell proliferation assay (MTT); assay type: cell-based; settings: Homo sapiens, NCI-H1975 cells, 72 hours treatment
Procedure: A representative number of compounds were assayed against cancer cell line NCI-H1975 using the cell proliferation assay:
1. 5×10^3 cells per well in 100 μl of medium were seeded in 96-well plate, here the medium contained 5% FBS
2. 24 hours later, 100 μl fresh medium was added with various concentrations of compounds into each well, while the medium here was free of FBS
3. After the cells were treated with compounds for 72 hours, 20 μl MTT (5 mg/ml) was added into each well, and then the assay plate was incubated at 37° C. for 4 more hours.
4. The assay plate was centrifuged at 800 g for 10 min. The medium was aspirated, 150 μl DMSO was added into each well. The plate was gently shaked for 10 min.
5. The absorbance at 570 nm was measured on the plate reader.

BTK, sequence (Q06187 whole entry): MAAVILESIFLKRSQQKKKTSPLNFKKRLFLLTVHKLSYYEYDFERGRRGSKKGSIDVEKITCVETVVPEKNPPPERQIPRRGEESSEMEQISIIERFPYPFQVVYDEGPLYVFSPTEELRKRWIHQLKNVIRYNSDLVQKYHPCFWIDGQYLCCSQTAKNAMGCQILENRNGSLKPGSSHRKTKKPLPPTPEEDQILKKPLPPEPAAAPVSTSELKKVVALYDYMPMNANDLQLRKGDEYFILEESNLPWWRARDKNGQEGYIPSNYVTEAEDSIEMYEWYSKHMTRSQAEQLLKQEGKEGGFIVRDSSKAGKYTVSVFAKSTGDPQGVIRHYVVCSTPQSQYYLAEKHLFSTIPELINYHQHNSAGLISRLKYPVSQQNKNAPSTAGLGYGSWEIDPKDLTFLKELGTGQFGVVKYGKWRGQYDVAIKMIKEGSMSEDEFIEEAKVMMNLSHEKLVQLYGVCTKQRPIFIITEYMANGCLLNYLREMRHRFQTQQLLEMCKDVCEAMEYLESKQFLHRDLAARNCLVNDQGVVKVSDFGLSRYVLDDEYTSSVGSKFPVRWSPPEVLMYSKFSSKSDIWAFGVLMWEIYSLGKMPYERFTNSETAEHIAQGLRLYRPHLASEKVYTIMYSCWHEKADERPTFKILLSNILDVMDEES
EGFR (L858R,T790M), sequence (P00533 25-1210 T790M/L858R): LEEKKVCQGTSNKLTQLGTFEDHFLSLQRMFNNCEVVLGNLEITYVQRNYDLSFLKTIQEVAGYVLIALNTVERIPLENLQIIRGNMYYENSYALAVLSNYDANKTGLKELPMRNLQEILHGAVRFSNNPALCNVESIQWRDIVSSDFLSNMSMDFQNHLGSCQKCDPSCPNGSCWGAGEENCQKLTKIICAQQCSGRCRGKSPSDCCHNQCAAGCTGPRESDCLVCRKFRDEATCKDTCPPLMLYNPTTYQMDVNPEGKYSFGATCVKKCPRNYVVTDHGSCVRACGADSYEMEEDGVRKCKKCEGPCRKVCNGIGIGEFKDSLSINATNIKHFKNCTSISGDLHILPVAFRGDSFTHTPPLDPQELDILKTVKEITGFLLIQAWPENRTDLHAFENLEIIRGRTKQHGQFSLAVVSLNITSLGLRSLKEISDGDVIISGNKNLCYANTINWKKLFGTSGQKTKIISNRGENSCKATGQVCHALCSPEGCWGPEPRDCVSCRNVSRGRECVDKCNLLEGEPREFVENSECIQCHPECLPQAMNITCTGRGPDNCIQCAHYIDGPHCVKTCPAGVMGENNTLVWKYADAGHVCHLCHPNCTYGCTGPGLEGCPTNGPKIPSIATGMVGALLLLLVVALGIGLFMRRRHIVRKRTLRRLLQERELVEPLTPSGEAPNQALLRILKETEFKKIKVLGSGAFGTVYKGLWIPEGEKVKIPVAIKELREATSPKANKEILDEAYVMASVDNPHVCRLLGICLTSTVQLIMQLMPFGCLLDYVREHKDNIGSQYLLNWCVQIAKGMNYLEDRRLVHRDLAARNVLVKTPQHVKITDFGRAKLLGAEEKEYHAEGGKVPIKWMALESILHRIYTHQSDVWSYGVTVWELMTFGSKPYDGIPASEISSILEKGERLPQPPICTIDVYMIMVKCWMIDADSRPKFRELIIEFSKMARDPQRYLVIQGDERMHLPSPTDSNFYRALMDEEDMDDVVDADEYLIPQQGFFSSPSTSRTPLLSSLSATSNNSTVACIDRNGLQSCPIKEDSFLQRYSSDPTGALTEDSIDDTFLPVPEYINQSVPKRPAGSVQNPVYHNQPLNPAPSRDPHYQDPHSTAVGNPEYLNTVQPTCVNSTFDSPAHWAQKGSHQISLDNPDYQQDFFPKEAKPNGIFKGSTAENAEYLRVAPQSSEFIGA
EGFR (L858R), sequence (P00533 25-1210 L858R): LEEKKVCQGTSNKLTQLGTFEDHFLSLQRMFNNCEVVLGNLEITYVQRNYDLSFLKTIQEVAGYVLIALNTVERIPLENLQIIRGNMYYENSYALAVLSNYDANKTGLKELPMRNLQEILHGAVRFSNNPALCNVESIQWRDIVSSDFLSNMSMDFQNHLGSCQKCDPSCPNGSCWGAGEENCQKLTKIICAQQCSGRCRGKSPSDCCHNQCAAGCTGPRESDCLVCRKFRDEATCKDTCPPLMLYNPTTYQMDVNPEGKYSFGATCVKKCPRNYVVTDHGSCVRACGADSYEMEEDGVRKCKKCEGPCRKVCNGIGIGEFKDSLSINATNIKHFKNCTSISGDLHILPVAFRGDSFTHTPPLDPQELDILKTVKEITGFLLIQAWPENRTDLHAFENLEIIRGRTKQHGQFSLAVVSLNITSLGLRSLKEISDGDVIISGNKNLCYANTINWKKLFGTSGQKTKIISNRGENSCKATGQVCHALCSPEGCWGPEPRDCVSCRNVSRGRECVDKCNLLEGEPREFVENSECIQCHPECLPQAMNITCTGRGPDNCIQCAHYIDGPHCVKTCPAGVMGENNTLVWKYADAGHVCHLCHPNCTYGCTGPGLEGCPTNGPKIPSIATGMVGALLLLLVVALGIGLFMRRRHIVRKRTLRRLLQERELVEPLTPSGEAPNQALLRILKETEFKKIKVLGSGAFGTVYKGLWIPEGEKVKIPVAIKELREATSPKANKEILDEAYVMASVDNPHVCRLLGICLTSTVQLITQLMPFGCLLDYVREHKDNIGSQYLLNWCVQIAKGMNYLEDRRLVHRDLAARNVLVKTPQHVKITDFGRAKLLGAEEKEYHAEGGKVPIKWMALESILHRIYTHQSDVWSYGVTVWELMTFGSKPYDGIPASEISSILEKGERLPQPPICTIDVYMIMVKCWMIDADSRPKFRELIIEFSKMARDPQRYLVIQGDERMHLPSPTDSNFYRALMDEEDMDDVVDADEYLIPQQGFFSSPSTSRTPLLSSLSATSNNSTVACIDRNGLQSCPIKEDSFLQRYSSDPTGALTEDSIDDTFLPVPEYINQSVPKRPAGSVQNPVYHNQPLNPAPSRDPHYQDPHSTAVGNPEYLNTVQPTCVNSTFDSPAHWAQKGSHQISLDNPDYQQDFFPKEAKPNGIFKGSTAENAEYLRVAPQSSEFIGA

SMILES	Kd [1]	Kd [2]	Kd [3]	IC50 [4]
C=CC(=O)N1CCC[C@@H](n2nc(-c3ccc(Oc4ccccc4)c(Cl)c3)c3c(N)ncnc32)C1 [Compound 18, (R)-1-(3-(4-amino-3-(3-chloro-4-phenoxyphenyl)-1H-pyrazolo[3,4-d]pyrimidin-1-yl)piperidin-1-yl)prop-2-en-1-one]	< 0.01 µM	0.0063 µM	0.0093 µM	0.494 µM
C=CC(=O)N1CCC[C@@H](n2nc(-c3ccc(Oc4ccccc4)cc3)c3c(N)ncnc32)C1 [Ibrutinib, reference compound]				> 2 µM
C=CC(=O)N1CCC[C@@H](n2nc(-c3ccc(Oc4ccc(F)cc4)cc3)c3c(N)ncnc32)C1 [Compound 17, (R)-1-(3-(4-amino-3-(4-(4-fluorophenoxy)phenyl)-1H-pyrazolo[3,4-d]pyrimidin-1-yl)piperidin-1-yl)prop-2-en-1-one]	< 0.01 µM	0.054 µM	0.27 µM	
